# Test results taken from patent publication US9416347B2, “Method of treating bacterial contamination in a microalgae culture with pH shock” (Heliae Development LLC, priority 2014, dated 2016).
# Where a name gives a salt, the structure may show the parent alone. Read-outs that look alike come from different tables or passages of the source.
# Tests used:
# [1] = system: Vampirovibrio chlorellavorus; conditions: culture receiving the second pH treatment, 85% before treatment
# Excerpt: (§1) Some bacteria in the microalgae culture may attach to the cell wall of the microalgae, eventually lysing the cell wall of the microalgae and killing the microalgae. […] An example of bacteria known to attach to microalgae is Vampirovibrio chlorellavorus.
# Samples were taken every two days to determine the cell dry weight (g/L) of the cultures.
# Cytophaga sp. = conditions: pH treated versus untreated culture, over the life of the cultures
# Chlorella sp. [2] = conditions: for cell dry weight: second pH treatment 7.5 to 3.5 with HCl (18%) for 15 minutes, raised with 4 M NaOH
# Chlorella = conditions: pH 3.5 with HCl (37%) for 15 minutes, open raceway pond
# [3] = system: bacteria attached to Chlorella
# Excerpt: as §1
# Chlorella sp. [4] = conditions: culture at 1,029 mg/L acetate, pH 3.5 for 15 minutes, returned to 7.5 with 2 M NaOH
# Description: The pH treated culture samples were maintained at the culture pH of 3.5 for 15 minutes before returning the culture pH to 7.5 by adding 2 M NaOH.
# The pH treatment was applied directly into the culture, without previous concentration or subsequent dilution through inoculation into a fresh media. All cultures were incubated with shaking at 100 rpm in 5% carbon dioxide and 25° C. […] 100 μM photon/m^2 s of light was also provided to create mixotrophic growth conditions. The cultures were monitored for 4 days (96 hours with dry weight samples taken at 0, 48, and 96 hours). Residual acetate analyses were carried at the end of the experiment.
# Chlorella sp. [5] = conditions: pH lowered from about 7.5 to 3.5 for 15 minutes, raised back with 5M NaOH
# Description: The first 400 ml culture was maintained as an untreated control at a pH of about 7.5. […] The pH treatments were applied directly to the cultures, without previous concentration of the microalgae or subsequent dilution through inoculation into fresh culture media. All cultures were incubated with shaking at 100 rpm in 5% carbon dioxide and 25° C. […] 100 μM photon/m^2 s of light was also provided to create mixotrophic growth conditions. The cultures were monitored for 4 days (96 hours with dry weight samples taken at 0, 48, and 96 hours). Live bacteria count samples were taken at 0 and 48 hours, and quantified using aerobic colony forming units (CFU) obtained from plate counts utilizing Petrifilm available from 3M (St. Paul, Minn.). A bacteria to microalgae ratio was also quantified using guava flow cytometry.
# [6] = system: live bacteria in Chlorella culture; conditions: for bacteria count: pH 3.5 with HCl (37%) for 15 minutes, open raceway pond
smiles,measurement,setting,value
"Cl [HCl, hydrochloric acid]",bacteria attachment level,[1]; day 4 (96 h),about 4.5%
same,bacteria attachment,[1]; within 48 hours,0%
same,Cytophaga sp. detection by qPCR,Cytophaga sp.,detected in the untreated culture only
same,productive life of culture,Chlorella sp. [2]; culture that received one pH treatment,approximately 14 days
same,"productive life of culture (lasted until day, then discarded)",Chlorella sp. [2]; culture that received two pH treatments,≥ 20 days
same,cell dry weight,Chlorella sp. [2]; 0 h,1.05 (g/L)
same,cell dry weight,Chlorella sp. [2]; 48 h,2.79 g/L
same,cell dry weight,Chlorella sp. [2]; 96 h,3.87 g/L
same,cell dry weight,Chlorella sp. [2]; 144 h,4.79 g/L
same,cell dry weight,"Chlorella; raised to 8.5 with NaOH, 0 h",1.2 g/L
same,cell dry weight,Chlorella; 11 h,1.4 g/L
same,cell dry weight,Chlorella; 24 h,1.6 g/L
same,cell dry weight,Chlorella; 35 h,2.2 g/L
same,cell dry weight,Chlorella; 48 h,2.5 g/L
same,cell dry weight,Chlorella; 59 h,3.5 g/L
same,cell dry weight,Chlorella; 72 h,4.0 g/L
same,cell dry weight,Chlorella; 83 h,4.8 g/L
same,cell dry weight,Chlorella; 96 h,5.1 g/L
same,cell dry weight,Chlorella; 107 h,5.4 g/L
same,cell dry weight,Chlorella; 120 h,5.7 g/L
same,cell dry weight,Chlorella; 131 h,6.1 g/L
same,cell dry weight,Chlorella; 144 h,6.1 g/L
same,cell dry weight,Chlorella; 155 h (after partial harvest),1.9 g/L
same,cell dry weight,Chlorella; 168 h,1.8 g/L
same,time bacterial attachment remained below 10%,[3]; pH treated culture,over 100 hours
same,bacterial attachment in the pH treated culture,"[3]; within 12 hours, drop from about 50%",under 10%
same,Cell Dry Weight,Chlorella sp. [4]; 0 h,0.89 ± 0.01 g/L
same,Cell Dry Weight,Chlorella sp. [4]; 48 h,1.88 ± 0.04 g/L
same,Cell Dry Weight,Chlorella sp. [4]; 96 h,2.58 ± 0.01 g/L
same,cell dry weight,Chlorella sp. [5]; 0 h,0.80 ± 0.03 g/L
same,cell dry weight,Chlorella sp. [5]; 48 h,2.54 ± 0.00 g/L
same,cell dry weight,Chlorella sp. [5]; 96 h,3.78 ± 0.00 g/L
same,total bacteria live count lower than the untreated culture,[6]; immediately following treatment,approximately 2 logs
same,bacteria count,[6]; 0 h,4.00E+04 CFU
same,bacteria count,[6]; 24 h,1.50E+07 CFU
same,bacteria count,[6]; 48 h,1.20E+08 CFU
same,bacteria count,[6]; 72 h,2.20E+08 CFU
same,bacteria count,[6]; 96 h,1.30E+08 CFU
same,bacteria count,[6]; 120 h,1.20E+08 CFU
same,bacteria count,[6]; 144 h,1.50E+08 CFU
